Test results from patent US20060100245A1, “Substituted biphenyl-4-carboxylic acid arylamide analogues” (Neurogen Corporation, priority 2002, published 2006).
pKi: −log10 of the molar value.

Legend:
human capsaicin receptor = target: T1, human capsaicin receptor (Homo sapiens, UniProt Q8NER1); assay: Calcium mobilization assay, determination of agonist activity; assay type: cell-based; conditions: capsaicin positive control, cells expressing human capsaicin receptor; read-out: approximate EC90 concentration
T1 construct: transfected with the pBK-CMV expression construct encoding the full length human capsaicin receptor; expressed in transfected cells
Protocol: This Example illustrates representative calcium mobilization assays for use in evaluating test compounds for agonist and antagonist activity.
Cells transfected with expression plasmids (as described in Example 4) and thereby expressing human capsaicin receptor are seeded and grown to 70-90% confluency in FALCON black-walled, clear-bottomed 96-well plates (#3904, BECTON-DICKINSON, Franklin Lakes, N.J.). […]
To measure the ability of a test compound to agonize or antagonize a calcium mobilization response in cells expressing capsaicin receptors to capsaicin or other vanilloid agonist, the EC50 of the agonist capsaicin is first determined. […] Capsaicin-induced calcium mobilization is monitored using either FLUOROSKAN ASCENT (Labsystems; Franklin, Mass.) or FLIPR (fluorometric imaging plate reader system; Molecular Devices, Sunnyvale, Calif.) instruments. […] In this equation, y is the maximum fluorescence signal, x is the concentration of the agonist or antagonist (in this case, capsaicin), a is the Emax, b corresponds to the EC50 value and c is the Hill coefficient. […]
The ability of a test compound to act as an agonist of the capsaicin receptor is determined by measuring the fluorescence response of cells expressing capsaicin receptors elicited by the compound as function of compound concentration.

[1] = target: T2, human capsaicin receptor (VR1) (Homo sapiens, UniProt Q8NER1); assay: Capsaicin receptor binding assay ([3H]RTX competition); conditions: read-out: Ki
T2 construct: transfected with the pBK-CMV expression construct encoding the full length human capsaicin receptor; expressed in transfected cells
Method in brief: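 Membranes from HEK293 cells stably expressing full-length human VR1; competition against 60 pM [3H]RTX, 60 min at 37 °C in HEPES/sucrose buffer pH 7.4 with 0.25 mg/ml BSA. Non-specific binding defined with 1 μM unlabelled RTX; alpha1-acid glycoprotein added after termination on ice.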

T2 sequence (Q8NER1 whole entry): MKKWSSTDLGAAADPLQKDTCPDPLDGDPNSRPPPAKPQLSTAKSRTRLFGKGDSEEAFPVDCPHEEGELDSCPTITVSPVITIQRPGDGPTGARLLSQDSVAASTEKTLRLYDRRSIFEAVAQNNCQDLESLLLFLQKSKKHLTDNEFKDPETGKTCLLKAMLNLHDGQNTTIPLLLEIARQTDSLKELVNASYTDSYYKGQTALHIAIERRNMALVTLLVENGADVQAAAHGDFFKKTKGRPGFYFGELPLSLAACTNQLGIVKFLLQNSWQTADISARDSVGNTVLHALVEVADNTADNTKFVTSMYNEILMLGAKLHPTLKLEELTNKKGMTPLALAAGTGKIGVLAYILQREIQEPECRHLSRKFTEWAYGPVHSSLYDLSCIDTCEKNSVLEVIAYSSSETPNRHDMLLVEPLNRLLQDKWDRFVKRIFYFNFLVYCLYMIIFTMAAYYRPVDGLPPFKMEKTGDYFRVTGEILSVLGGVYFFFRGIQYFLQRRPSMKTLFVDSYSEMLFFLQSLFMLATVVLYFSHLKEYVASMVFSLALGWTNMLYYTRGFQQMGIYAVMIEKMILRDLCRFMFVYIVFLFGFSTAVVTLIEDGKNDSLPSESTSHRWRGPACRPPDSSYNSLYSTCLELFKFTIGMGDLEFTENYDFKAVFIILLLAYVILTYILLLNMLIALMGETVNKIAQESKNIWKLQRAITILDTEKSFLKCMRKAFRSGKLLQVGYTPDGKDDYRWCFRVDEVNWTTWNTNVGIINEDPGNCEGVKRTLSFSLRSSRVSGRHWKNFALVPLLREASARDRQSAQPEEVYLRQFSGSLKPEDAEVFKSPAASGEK
T1 sequence (Q8NER1 whole entry): as above

Structure (SMILES)	EC90 (human capsaicin receptor)	pKi [1]
COc1cc(CNC(=O)CCCC/C=C/C(C)C)ccc1O [capsaicin]	~100 nM	
CC(C)(C)c1ccc(NC(=O)c2ccc(-c3ccccc3C(F)(F)F)cc2O)cc1 [Compound 21, 3-Hydroxy-2′-trifluoromethyl-biphenyl-4-carboxylic acid (4-tert-butyl-phenyl)-amide]		> 6.00
CC(C)(C)c1ccc(NC(=O)c2ccc(-c3ncccc3C=O)cc2)cc1 [Compound 410, N-(4-tert-Butyl-phenyl)-4-(3-formyl-pyridin-2-yl)-benzamide]		> 6.00
CC(C)(C)c1ccc(NC(=O)c2ccc(-c3ccccc3Cl)cn2)cc1 [Compound 40, 5-(2-Chloro-phenyl)-pyridine-2-carboxylic acid (4-tert-butyl-phenyl)-amide]		> 6.00
CC(C)(C)c1ccc(NC(=O)c2ccc(-c3ncccc3NO)cc2)cc1 [Compound 411, N-(4-tert-Butyl-phenyl)-4-(3-hydroxyamino-pyridin-2-yl)-benzamide]		> 6.00
Cc1ccc(-c2ccc(C(=O)Nc3ccc4c(c3)CCC4)cn2)cc1C [Compound 109, 6-(3,4-Dimethyl-phenyl)-N-indan-5-yl-nicotinamide]		> 6.00
CCCNc1cccnc1-c1ccc(C(=O)Nc2ccc(C(C)(C)C)cc2)cc1 [Compound 419, N-(4-tert-Butyl-phenyl)-4-(3-propylamino-pyridin-2-yl)-benzamide]		> 6.00
O=C(Nc1ccc(C(F)(F)F)cc1)c1ccc(-c2ncccc2C(F)(F)F)cc1O [Compound 16, 2-Hydroxy-N-(4-trifluoromethyl-phenyl)-4-(3-trifluoromethyl-pyridin-2-yl)-benzamide]		> 6.00
CC(C)c1ccc(NC(=O)c2ccc(-c3ccccc3F)nc2)cc1 [Compound 89, 6-(2-Fluoro-phenyl)-N-(4-isopropyl-phenyl)-nicotinamide]		> 6.00
O=C(Nc1ccc2c(c1)OCCO2)c1ccc(-c2ccccc2F)nc1 [Compound 192, N-(2,3-Dihydro-benzo[1,4]dioxin-6-yl)-6-(2-fluoro-phenyl)-nicotinamide]		> 6.00
Cc1ccccc1-c1ccc(C(=O)Nc2ccc(C(C)(C)C)cc2)cn1 [Compound 453, N-(4-tert-Butyl-phenyl)-6-o-tolyl-nicotinamide]		> 6.00
CCOc1cccc(-c2ccc(C(=O)Nc3ccc(Br)c(Cl)c3)cn2)c1 [Compound 317, N-(4-Bromo-3-chloro-phenyl)-6-(3-ethoxy-phenyl)-nicotinamide]		> 6.00
O=C(Nc1ccc2c(c1)OCCCO2)c1ccc(-c2ccccc2)nc1 [Compound 230, N-(3,4-Dihydro-2H-benzo[b][1,4]dioxepin-7-yl)-6-phenyl-nicotinamide]		> 6.00
O=C(Nc1ccc(C(F)(F)F)cc1)c1ccc(-c2ncccc2[N+](=O)[O-])cc1 [Compound 36, 4-(3-Nitro-pyridin-2-yl)-N-(4-trifluoromethyl-phenyl)-benzamide]		> 6.00
CC(C)(C)c1ccc(NC(=O)c2ccc(-c3ncccn3)cc2)cc1 [Compound 433, N-(4-tert-Butyl-phenyl)-4-pyrimidin-2-yl-benzamide]		> 6.00
Cc1cc(C)cc(-c2ccc(C(=O)Nc3ccc(C)c(C)c3)cn2)c1 [Compound 237, N-(3,4-Dimethyl-phenyl)-6-(3,5-dimethyl-phenyl)-nicotinamide]		> 6.00
CC(C)(O)c1ccc(NC(=O)c2ccc(-c3ncccc3Cl)cc2)cc1 [Compound 29, 4-(3-Chloro-pyridin-2-yl)-N-[4-(1-hydroxy-1-methyl-ethyl)-phenyl]-benzamide]		> 6.00
Cc1ccc(C)c(-c2ccc(C(=O)Nc3ccc(C(F)(F)F)cc3)cn2)c1 [Compound 56, 6-(2,5-Dimethyl-phenyl)-N-(4-trifluoromethyl-phenyl)-nicotinamide]		> 6.00

Structure (SMILES)	EC90 (human capsaicin receptor)	pKi [1]
CC(C)(C)c1ccc(NC(=O)c2ccc(-c3ccccc3[N+](=O)[O-])nc2)cc1 [Compound 446, N-(4-tert-Butyl-phenyl)-6-(2-nitro-phenyl)-nicotinamide]		> 6.00
COc1cccc(NC(=O)c2ccc(-c3cccc(F)c3)nc2)c1 [Compound 126, 6-(3-Fluoro-phenyl)-N-(3-methoxy-phenyl)-nicotinamide]		> 6.00
Cc1ccccc1-c1ccc(C(=O)Nc2ccc(C(F)(F)F)cc2)cn1 [Compound 185, 6-o-Tolyl-N-(4-trifluoromethyl-phenyl)-nicotinamide]		> 6.00
COc1cccc(NC(=O)c2ccc(-c3ccccc3F)nc2)c1 [Compound 87, 6-(2-Fluoro-phenyl)-N-(3-methoxy-phenyl)-nicotinamide]		> 6.00
CC(C)(C)c1ccc(NC(=O)c2ccc(-c3ncccc3NC3CCCC3)cc2)cc1 [Compound 406, N-(4-tert-Butyl-phenyl)-4-(3-cyclopentylamino-pyridin-2-yl)-benzamide]		> 6.00
CC(C)(C)c1ccc(NC(=O)c2ccc(-c3ncccc3N)cc2)cc1 [Compound 23, 4-(3-Amino-pyridin-2-yl)-N-(4-tert-butyl-phenyl)-benzamide]		> 6.00
O=C(Nc1ccccc1)c1ccc(-c2ccccc2Cl)nc1 [Compound 81, 6-(2-Chloro-phenyl)-N-phenyl-nicotinamide]		> 6.00
CCCc1ccc(NC(=O)c2ccc(-c3ccccc3F)nc2)cc1 [Compound 91, 6-(2-Fluoro-phenyl)-N-(4-propyl-phenyl)-nicotinamide]		> 6.00
O=C(Nc1ccc(Br)c(Cl)c1)c1ccc(-c2ccc(F)cc2)nc1 [Compound 320, N-(4-Bromo-3-chloro-phenyl)-6-(4-fluoro-phenyl)-nicotinamide]		> 6.00
CC(C)(C)[C@H]1CC[C@@H](NC(=O)c2ccc(-c3ncccc3Cl)cc2)CC1 [Compound 393, N-(4-tert-Butyl-cyclohexyl)-4-(3-chloro-pyridin-2-yl)-benzamide (cis)]		> 6.00
CCCc1ccc(NC(=O)c2ccc(-c3ccccc3C)nc2)cc1 [Compound 389, N-(4-Propyl-phenyl)-6-o-tolyl-nicotinamide]		> 6.00
CC(C)(C)c1ccc(NC(=O)c2ccc(-c3ccncc3[N+](=O)[O-])cc2)cc1 [Compound 416, N-(4-tert-Butyl-phenyl)-4-(3-nitro-pyridin-4-yl)-benzamide]		> 6.00
CC(C)(C)c1ccc(NC(=O)c2ccc(-c3ccncc3N(S(C)(=O)=O)S(C)(=O)=O)cc2)cc1 [Compound 427, N-(4-tert-Butyl-phenyl)-4-[3-(N,N-dimethanesulfonyl)amino-pyridin-4-yl]-benzamide]		> 6.00
Cc1ccccc1-c1ccc(C(=O)Nc2ccc3c(c2)CCC3)cn1 [Compound 470, N-Indan-5-yl-6-o-tolyl-nicotinamide]		> 6.00
CC(C)(C)c1ccc(NC(=O)c2ccc(-c3ncccc3C(F)(F)F)cc2)cc1 [Compound 421, N-(4-tert-Butyl-phenyl)-4-(3-trifluoromethyl-pyridin-2-yl)-benzamide]		> 6.00
O=C(Nc1ccc(Br)c(Cl)c1)c1ccc(-c2cccc(F)c2)nc1 [Compound 318, N-(4-Bromo-3-chloro-phenyl)-6-(3-fluoro-phenyl)-nicotinamide]		> 6.00
CC(C)(C)c1ccc(NC(=O)c2ccc(-c3ncccc3F)cc2)cc1 [Compound 409, N-(4-tert-Butyl-phenyl)-4-(3-fluoro-pyridin-2-yl)-benzamide]		> 6.00
